According to patent publication US7531568B2, “PPAR active compounds” (Plexxikon, Inc., priority 2004, dated 2009):

Experiments:
[1] = target: T1, PPARγ (Homo sapiens, UniProt P37231); test: homogenous Alpha screen assay, agonist mode, coactivator Biotin-PGC-1 peptide recruitment; assay type: biochemical; settings: His-tagged PPAR-LBD 20 nM, 25 nM biotin-PGC-1 peptide, 1 hour room temperature; read-out: EC50 with respect to PPARγ
T1 sequence (P37231 with tags, fused parts or gaps): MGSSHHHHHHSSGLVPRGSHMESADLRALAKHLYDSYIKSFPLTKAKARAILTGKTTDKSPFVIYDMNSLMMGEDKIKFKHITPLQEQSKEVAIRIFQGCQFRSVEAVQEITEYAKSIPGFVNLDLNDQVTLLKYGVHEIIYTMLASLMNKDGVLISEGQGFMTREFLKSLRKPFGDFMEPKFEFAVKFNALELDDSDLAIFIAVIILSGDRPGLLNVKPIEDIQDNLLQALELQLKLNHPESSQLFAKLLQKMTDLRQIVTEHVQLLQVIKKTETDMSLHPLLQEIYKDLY
Description: (§1) Plasmids encoding the Ligand-binding domains (LBDs) of PPARα, PPARγ, and PPARδ were engineered using common polymerase chain reaction (PCR) methods (pGal4-PPARα-LBD, pGal4-PPARγ-LBD, pGal4-PPARδ-LBD). The relevant DNA sequences and encoded protein sequences used in the assay are shown for each (see below). Complementary DNA cloned from various human tissues was purchased from Invitrogen, and these were used as substrates in the PCR reactions. Specific custom synthetic oligonucleotide primers (Invitrogen, see below) were designed to initiate the PCR product, and also to provide the appropriate restriction enzyme cleavage sites for ligation with the plasmids.
For protein expression, plasmids containing genes of interest were transformed into E. coli strain BL21(DE3)RIL (Invitrogen) and transformants selected for growth on LB agar plates containing appropriate antibiotics. Single colonies were grown for 4 hrs at 37° C. in 200 ml LB media. […]. […]
(§2) The homogenous Alpha screen assay was used in the agonist mode to determine the ligand dependent interaction of the PPARs (α,δ,γ) with the coactivator Biotin-PGC- 1 peptide (biotin-AHX-[…]-CONH2 (SEQ ID NO: 13), supplied by Wyeth). […] The samples were incubated for 1 hour in the dark at room temperature before taking the reading in the Fusion alpha or Alpha Quest reader. […]

[2] = target: T2, PPARδ (Homo sapiens, UniProt Q03181); test: as above; assay type: biochemical; settings: His-tagged PPAR-LBD 10 nM, 25 nM biotin-PGC-1 peptide, 1 hour room temperature; read-out: EC50 with respect to PPARδ
T2 construct: P1057. pET BAM6 PPARD G165-Y441-X; made in house; host or cells: E. coli BL21(DE3)RIL
T2 sequence (Q03181 with tags, fused parts or gaps): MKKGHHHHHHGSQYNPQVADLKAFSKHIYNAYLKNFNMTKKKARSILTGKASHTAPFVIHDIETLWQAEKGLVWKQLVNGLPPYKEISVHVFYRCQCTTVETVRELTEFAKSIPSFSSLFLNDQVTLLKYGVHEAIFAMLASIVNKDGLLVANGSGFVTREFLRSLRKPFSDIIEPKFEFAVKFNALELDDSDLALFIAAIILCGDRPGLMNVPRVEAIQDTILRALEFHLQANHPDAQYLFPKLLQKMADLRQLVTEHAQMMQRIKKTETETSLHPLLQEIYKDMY
Description: as §1
For PPARδ protein expression, single colonies were grown for 4 hrs at 37° C. in 200 mL LB media. 16×1 L of fresh TB media in 2.8 L flasks were inoculated with 10 mL of starter culture and grown with constant shaking at 37° C. […] Cells were harvested by centrifugation and pellets frozen at −80° C. until ready for lysis/purification. […]
as §2

[3] = target: T3, murine PPARα (Mus musculus, UniProt P23204); settings: cited from earlier work
T3 sequence (P23204 1-468): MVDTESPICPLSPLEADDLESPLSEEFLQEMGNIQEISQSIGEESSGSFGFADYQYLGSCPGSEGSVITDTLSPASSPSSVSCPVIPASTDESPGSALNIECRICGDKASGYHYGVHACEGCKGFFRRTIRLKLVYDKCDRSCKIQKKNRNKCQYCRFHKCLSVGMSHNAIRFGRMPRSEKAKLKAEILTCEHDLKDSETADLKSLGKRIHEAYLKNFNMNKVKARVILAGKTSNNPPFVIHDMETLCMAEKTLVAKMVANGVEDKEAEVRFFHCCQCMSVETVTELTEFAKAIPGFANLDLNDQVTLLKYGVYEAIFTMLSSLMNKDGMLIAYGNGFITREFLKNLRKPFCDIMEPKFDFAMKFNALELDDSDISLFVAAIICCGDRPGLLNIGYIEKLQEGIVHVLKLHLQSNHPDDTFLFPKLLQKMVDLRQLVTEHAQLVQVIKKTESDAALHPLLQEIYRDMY

[4] = target: T4, PPARδ (Homo sapiens, UniProt Q03181); settings: cited from earlier work
T4 sequence (Q03181 1-441): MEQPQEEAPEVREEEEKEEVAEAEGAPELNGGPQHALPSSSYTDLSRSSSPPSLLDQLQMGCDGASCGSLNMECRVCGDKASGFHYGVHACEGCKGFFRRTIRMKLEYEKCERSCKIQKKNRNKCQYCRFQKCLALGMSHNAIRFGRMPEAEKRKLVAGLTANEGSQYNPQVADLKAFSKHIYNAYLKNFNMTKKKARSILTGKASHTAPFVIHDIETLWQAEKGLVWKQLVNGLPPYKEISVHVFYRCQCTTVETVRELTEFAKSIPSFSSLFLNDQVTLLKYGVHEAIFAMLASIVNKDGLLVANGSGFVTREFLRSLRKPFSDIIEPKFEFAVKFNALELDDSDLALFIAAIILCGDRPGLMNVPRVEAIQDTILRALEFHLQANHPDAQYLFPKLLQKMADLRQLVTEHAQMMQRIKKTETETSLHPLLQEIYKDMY

[5] = recent large prospective trial; cited from earlier work

COc1ccc2c(c1)c(SCC(=O)O)cn2S(=O)(=O)c1ccc(Cl)c(Cl)c1 [Compound 27, [1-(3,4-dichloro-benzenesulfonyl)-5-methoxy-1H-indol-3-ylsulfanyl]-acetic acid]
EC50 [1]: < 1 µM
EC50 [2]: < 1 µM

CCCc1c(OCCCOc2ccc(OCC(=O)O)cc2)ccc(C(C)=O)c1O [Compound L-165041]
activity on murine PPARα [3]: inactive
agonist selectivity for PPARδ over PPARγ [4]: approximately 30 fold

Cc1ccc(C)c(OCCCC(C)(C)C(=O)O)c1 [gemfibrozil]
reduction in cardiovascular events or death [5]: 22%
